Experimental data reported in ChEMBL document CHEMBL4706479, “Novel Aryloxyethyl Derivatives of 1-(1-Benzoylpiperidin-4-yl)methanamine as the Extracellular Regulated Kinases 1/2 (ERK1/2) Phosphorylation-Preferring Serotonin 5-HT Receptor-Biased Agonists with Robust Antidepressant-like Activity” (J Med Chem, 2019).
Converted amounts (≈) assume the structure as drawn. The source made the active and inactive calls. No cut-off for these calls is given here.

What was measured:
[1] = Tmax in Wistar rat at […], po measured after 60 mins by HPLC analysis; format: ADME, organism-based; conditions: in vivo, dose 2.5 mg/kg
[2] = target: Alpha-2A adrenergic receptor (Homo sapiens) (UniProt P08913); assay: Inhibition of adrenergic alpha-2A receptor (unknown origin) at 10 uM relative to control
[3] = target: Alpha-2A adrenergic receptor (Homo sapiens) (UniProt P08913); assay: Inhibition of adrenergic alpha-2A receptor (unknown origin) at 1 uM relative to control
[4] = target: Beta-1 adrenergic receptor (Homo sapiens) (UniProt P08588); assay: Inhibition of adrenergic beta1 receptor (unknown origin) at 10 uM relative to control
D(2) dopamine receptor = D(2) dopamine receptor (Homo sapiens, UniProt P14416); assay: Inhibition of dopamine D2S receptor (unknown origin) at 1 uM relative to control
Homo sapiens [5] = organism: Homo sapiens; assay: Inhibition of delta 2-type opioid receptor (unknown origin) at 10 uM relative to control
[6] = target: Kappa-type opioid receptor (Homo sapiens) (UniProt P41145); assay: Inhibition of kappa opioid receptor (unknown origin) at 10 uM relative to control
[7] = target: Mu-type opioid receptor (Homo sapiens) (UniProt P35372); assay: Inhibition of mu opioid receptor (unknown origin) at 10 uM relative to control
[8] = target: Vasopressin V1a receptor (Homo sapiens) (UniProt P37288); assay: Inhibition of vasopressin V1a receptor (unknown origin) at 10 uM relative to control
[9] = target: Acetylcholinesterase (Homo sapiens) (UniProt P22303); assay: Inhibition of AChE (unknown origin) at 10 uM relative to control
[10] = target: 5-hydroxytryptamine receptor 1D (Homo sapiens) (UniProt P28221); assay: Inhibition of 5-HT1D (unknown origin) at 1 uM relative to control
[11] = target: 5-hydroxytryptamine receptor 2B (Homo sapiens) (UniProt P41595); assay: Inhibition of 5-HT2B (unknown origin) at 10 uM relative to control
Homo sapiens [12] = organism: Homo sapiens; assay: Inhibition of NMDA glutamate receptor (unknown origin) at 10 uM relative to control
hERG (KCNH2) = hERG (KCNH2) (Homo sapiens, UniProt Q12809); assay: Displacement of [3H]-dofetilide from human ERG (unknown origin) at 10 uM relative to control; conditions: probe [3H]-dofetilide
Homo sapiens [13] = organism: Homo sapiens; assay: Inhibition of potassium channel (unknown origin) at 10 uM relative to control
[14] = target: Tyrosine-protein kinase Lck (Homo sapiens) (UniProt P06239); assay: Inhibition of LCK (unknown origin) at 10 uM relative to control
[15] = target: Prostaglandin G/H synthase 1 (Homo sapiens) (UniProt P23219); assay: Inhibition of COX1 (unknown origin) at 10 uM relative to control
[16] = target: Prostaglandin G/H synthase 2 (Homo sapiens) (UniProt P35354); assay: Inhibition of COX2 (unknown origin) at 10 uM relative to control
MAO-A = MAO-A (Homo sapiens, UniProt P21397); assay: Inhibition of MAO-A (unknown origin) at 10 uM relative to control
[17] = Aqueous solubility of compound in pH 7.4 PBS buffer at 200 uM; format: physicochemical
[18] = Aqueous solubility of compound in simulated intestinal fluid at 200 uM; format: physicochemical
[19] = Permeability of compound across basolateral to apical side in human Caco-2 cells at pH 7.4; format: ADME, cell-based; conditions: Caco-2, pH 7.4, read-out: permeability
MDCK-II = assay: Inhibition of P-gp in human MDR1-MDCKII cells at 10 uM relative to control; format: cell-based; conditions: Canis lupus familiaris
CYP2D6 = CYP2D6 (Homo sapiens, UniProt P10635); assay: Inhibition of human recombinant CYP2D6 at 10 uM relative to control; format: ADME
[20] = target: 5-hydroxytryptamine receptor 2A (Homo sapiens) (UniProt P28223); assay: Displacement of [3H]-ketanserin from human recombinant 5-HT2A receptor stably expressed in CHO-K1 cell membranes at 1 uM measured after 90 mins by microbeta2 scintillation counting analysis relative to control; conditions: Cell membrane
Rattus norvegicus = assay: In vivo biased agonist activity at 5-HT1A receptor in rat prefrontal brain cortex assessed as increase in ERK1/2 phosphorylation levels at 0.04 to […], po measured at 15 mins by Alphalisa assay; format: functional, organism-based; conditions: dose lower 0.04 mg/kg, dose upper […]
[21] = Effect on spontaneous locomotor activity in Wistar rat at 0.04 to […], po after 60 mins in presence of 5-HT1A antagonist WAY100635 by open field test; format: organism-based; conditions: in vivo, 1 h, dose 0.04-2.5 mg/kg

Sequence of Alpha-2A adrenergic receptor (Homo sapiens) (P08913 whole entry): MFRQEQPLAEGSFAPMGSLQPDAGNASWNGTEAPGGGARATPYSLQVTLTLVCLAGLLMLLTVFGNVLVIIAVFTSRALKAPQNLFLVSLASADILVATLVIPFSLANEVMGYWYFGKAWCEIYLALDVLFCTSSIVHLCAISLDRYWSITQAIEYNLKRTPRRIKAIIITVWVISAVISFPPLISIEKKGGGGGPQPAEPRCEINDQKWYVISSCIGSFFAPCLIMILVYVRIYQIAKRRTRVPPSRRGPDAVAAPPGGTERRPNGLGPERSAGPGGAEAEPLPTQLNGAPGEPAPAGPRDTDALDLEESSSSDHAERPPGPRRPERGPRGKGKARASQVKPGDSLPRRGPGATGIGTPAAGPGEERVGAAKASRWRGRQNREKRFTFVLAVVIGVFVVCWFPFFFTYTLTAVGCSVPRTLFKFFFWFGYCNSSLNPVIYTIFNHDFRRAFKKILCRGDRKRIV
Sequence of D(2) dopamine receptor (P14416 whole entry): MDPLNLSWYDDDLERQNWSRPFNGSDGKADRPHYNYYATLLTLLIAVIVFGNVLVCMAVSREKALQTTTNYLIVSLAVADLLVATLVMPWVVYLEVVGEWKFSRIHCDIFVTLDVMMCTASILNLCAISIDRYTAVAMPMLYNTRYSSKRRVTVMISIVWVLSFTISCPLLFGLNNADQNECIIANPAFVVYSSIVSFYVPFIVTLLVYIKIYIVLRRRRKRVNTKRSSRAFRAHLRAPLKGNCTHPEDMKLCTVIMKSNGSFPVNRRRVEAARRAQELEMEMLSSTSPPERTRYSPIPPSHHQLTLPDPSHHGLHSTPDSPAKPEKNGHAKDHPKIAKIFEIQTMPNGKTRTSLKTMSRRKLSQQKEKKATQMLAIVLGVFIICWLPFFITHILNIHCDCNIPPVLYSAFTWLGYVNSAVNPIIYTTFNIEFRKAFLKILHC
Sequence of Tyrosine-protein kinase Lck (Homo sapiens) (P06239 2-509 limits assumed): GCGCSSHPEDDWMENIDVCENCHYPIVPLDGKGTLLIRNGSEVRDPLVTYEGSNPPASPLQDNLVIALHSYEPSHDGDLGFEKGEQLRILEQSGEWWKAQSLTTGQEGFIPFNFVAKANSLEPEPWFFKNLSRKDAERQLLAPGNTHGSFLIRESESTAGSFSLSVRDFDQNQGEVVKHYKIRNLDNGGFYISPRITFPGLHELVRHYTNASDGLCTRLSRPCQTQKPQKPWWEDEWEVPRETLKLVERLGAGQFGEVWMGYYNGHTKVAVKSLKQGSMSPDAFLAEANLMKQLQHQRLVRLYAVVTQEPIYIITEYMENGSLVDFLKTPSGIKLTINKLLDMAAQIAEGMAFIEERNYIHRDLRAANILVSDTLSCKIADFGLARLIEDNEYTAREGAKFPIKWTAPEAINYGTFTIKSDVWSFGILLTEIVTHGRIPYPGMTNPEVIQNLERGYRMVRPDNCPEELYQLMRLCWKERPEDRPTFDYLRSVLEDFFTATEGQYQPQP
Sequence of Prostaglandin G/H synthase 1 (Homo sapiens) (P23219 whole entry): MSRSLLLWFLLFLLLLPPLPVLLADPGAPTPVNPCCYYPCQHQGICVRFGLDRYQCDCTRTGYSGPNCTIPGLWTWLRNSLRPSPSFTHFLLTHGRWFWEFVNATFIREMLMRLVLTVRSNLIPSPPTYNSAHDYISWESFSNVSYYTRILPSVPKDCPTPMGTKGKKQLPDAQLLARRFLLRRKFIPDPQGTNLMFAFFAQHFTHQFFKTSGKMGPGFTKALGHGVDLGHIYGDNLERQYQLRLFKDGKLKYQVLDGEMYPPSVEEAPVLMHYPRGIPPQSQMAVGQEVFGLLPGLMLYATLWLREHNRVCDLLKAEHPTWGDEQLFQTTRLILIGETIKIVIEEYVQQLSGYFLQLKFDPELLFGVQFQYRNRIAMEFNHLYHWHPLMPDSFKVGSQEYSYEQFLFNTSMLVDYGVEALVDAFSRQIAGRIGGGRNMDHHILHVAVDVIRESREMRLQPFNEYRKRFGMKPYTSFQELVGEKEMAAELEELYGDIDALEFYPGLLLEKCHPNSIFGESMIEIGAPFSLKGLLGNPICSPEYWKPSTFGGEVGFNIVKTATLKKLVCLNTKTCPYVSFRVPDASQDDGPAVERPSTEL
Sequence of Vasopressin V1a receptor (Homo sapiens) (P37288 whole entry, looked up): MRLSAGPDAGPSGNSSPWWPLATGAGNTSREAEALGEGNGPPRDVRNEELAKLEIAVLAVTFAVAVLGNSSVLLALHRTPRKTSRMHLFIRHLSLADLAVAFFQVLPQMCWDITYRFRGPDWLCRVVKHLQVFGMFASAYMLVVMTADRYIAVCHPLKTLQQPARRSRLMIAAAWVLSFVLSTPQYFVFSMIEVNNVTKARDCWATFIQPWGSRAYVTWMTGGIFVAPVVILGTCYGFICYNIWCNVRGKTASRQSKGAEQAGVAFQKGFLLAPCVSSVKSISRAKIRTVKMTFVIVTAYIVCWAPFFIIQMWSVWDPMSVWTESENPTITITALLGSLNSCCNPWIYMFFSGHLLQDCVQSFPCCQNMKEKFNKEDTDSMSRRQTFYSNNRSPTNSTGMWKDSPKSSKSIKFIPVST
Sequence of Prostaglandin G/H synthase 2 (Homo sapiens) (P35354 whole entry): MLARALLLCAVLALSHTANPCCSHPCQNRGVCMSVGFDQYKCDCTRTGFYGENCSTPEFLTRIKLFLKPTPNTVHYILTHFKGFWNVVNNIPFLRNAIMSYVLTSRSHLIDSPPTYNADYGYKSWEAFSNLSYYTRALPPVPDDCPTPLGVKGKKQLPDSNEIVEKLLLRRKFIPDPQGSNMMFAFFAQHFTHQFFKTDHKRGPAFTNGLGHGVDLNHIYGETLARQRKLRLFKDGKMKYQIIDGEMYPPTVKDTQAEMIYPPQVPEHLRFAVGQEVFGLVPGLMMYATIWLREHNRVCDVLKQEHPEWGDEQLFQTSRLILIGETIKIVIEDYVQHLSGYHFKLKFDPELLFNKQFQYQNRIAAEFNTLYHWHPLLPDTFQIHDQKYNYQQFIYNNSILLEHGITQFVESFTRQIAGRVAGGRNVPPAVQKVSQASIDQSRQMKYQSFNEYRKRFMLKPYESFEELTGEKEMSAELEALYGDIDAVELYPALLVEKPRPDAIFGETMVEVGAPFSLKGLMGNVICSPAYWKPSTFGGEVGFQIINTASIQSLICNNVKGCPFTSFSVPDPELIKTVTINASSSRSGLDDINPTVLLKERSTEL
Sequence of 5-hydroxytryptamine receptor 1D (Homo sapiens) (P28221 whole entry): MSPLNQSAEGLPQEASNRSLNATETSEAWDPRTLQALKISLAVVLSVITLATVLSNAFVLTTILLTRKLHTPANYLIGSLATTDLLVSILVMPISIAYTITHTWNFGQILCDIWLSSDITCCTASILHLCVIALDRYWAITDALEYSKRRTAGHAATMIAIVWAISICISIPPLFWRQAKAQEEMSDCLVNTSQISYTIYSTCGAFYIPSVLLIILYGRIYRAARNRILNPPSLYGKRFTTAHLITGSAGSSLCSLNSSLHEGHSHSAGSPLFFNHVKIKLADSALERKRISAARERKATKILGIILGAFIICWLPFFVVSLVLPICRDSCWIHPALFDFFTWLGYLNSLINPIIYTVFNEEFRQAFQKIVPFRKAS
Sequence of CYP2D6 (P10635 whole entry): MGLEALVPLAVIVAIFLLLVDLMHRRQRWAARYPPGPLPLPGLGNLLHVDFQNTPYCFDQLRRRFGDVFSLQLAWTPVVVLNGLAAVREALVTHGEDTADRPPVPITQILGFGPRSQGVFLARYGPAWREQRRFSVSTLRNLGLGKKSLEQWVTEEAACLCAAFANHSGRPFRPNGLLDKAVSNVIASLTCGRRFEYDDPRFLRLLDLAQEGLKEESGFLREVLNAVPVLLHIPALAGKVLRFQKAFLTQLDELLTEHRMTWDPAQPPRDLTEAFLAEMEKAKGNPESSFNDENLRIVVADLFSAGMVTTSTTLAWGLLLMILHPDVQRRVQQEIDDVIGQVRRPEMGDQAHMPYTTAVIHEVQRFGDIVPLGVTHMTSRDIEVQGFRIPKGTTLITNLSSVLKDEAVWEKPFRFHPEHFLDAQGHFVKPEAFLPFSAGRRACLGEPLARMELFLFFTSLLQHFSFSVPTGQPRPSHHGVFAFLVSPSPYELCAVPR
Sequence of Mu-type opioid receptor (Homo sapiens) (P35372 whole entry): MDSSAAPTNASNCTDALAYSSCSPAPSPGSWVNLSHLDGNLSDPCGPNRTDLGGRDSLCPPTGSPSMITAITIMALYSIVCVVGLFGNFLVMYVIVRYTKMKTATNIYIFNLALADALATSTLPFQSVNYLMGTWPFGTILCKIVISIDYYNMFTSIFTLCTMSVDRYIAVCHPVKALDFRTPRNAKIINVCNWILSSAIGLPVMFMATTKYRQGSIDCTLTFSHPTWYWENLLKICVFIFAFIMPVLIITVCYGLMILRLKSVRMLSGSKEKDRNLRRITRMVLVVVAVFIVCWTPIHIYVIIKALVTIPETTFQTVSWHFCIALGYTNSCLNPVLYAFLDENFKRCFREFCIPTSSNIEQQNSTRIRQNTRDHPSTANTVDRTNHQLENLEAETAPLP
Sequence of 5-hydroxytryptamine receptor 2B (Homo sapiens) (P41595 whole entry): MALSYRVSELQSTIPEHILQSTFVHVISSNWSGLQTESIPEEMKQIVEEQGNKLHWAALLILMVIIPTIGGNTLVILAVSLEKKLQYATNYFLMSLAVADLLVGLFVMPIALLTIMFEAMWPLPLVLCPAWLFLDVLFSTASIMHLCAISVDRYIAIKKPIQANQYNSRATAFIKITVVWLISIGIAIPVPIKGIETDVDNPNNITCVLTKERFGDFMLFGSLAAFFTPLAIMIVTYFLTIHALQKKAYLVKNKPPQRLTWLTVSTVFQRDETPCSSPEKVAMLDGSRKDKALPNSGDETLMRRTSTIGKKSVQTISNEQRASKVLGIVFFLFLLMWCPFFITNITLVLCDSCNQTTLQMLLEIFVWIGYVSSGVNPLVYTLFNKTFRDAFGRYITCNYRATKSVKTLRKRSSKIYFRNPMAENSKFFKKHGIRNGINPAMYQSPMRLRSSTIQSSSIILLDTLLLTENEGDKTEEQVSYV

O=C(c1ccc(F)c(Cl)c1)N1CCC(F)(CNCCOc2ccccn2)CC1
Tmax at 1 h [1]: 15 min
inhibition [2]: 94.3%
inhibition [3]: 29.9%
inhibition [4]: 2.2%
inhibition (D(2) dopamine receptor): 9.5%
inhibition (Homo sapiens [5]): 7.2%
inhibition [6]: 34.6%
inhibition [7]: 42.9%
inhibition [8]: 7%
inhibition [9]: -2.9%
inhibition [10]: 25.5%
inhibition [11]: 39.7%
inhibition (Homo sapiens [12]): -1.8%
inhibition at 10 µM (hERG (KCNH2)): 16.2%
inhibition (Homo sapiens [13]): 3.8%
inhibition [14]: 18.2%
inhibition [15]: 11.9%
inhibition [16]: -9.2%
inhibition at 10 µM (MAO-A): -3.6%
solubility at 200 µM [17]: 192 µM (≈ 78.8 µg/mL)
solubility at 200 µM [18]: 192 µM (≈ 78.8 µg/mL)
Papp B→A [19]: 22.4 ×10⁻⁶ cm/s
inhibition (MDCK-II): 6.5%
inhibition at 10 µM (CYP2D6): 15.9%
Activity [20]: < 50%
Activity (Rattus norvegicus): Active
Activity [21]: Non-Toxic
